IC50 data for 8 compounds are collected here from patent publication US20260297087A1, “Pyridoimidazolone Compounds, Preparation Thereof and Therapeutic Uses Thereof” (Sanofi, priority 2023, published 2026).

The target of one test is T1, ERK5 (Homo sapiens, UniProt Q13164).
T1 construct: MEF2-luciferase reporter
The test is described as follows: Inhibition of Cellular ERK5 Activity (cell-based assay, MEF2 luciferase reporter in SN12C cells). To be noted: renal cancer cell line SN12C, doxycycline-induced MEKSDD, mean where repeated. Summed up: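 SN12C cells carrying a MEF2-luciferase reporter and doxycycline-inducible (1 μg/ml) constitutively active MEK5DD, seeded 24 h before compound addition at 0.3–1000 nM (0.1% DMSO final). Luminescence read; IC50 is the concentration giving 50% signal reduction versus DMSO-treated cells.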

Test [1] has as its target T2, ERK5 (activated catalytic domain) (Homo sapiens, UniProt Q13164).
T2 construct: purchased CarnaBiosciences 04-146
The test is described as follows: Cell-Free Assay of ERK5 Inhibition (Time-Resolved FRET, 4EBP1 peptide phosphorylation). The format is biochemical. To be noted: ERK5 catalytic domain 4 nM, 1 mM ATP, 1 μM biotinylated 4EBP1 peptide, 30 min at 37° C.; mean where repeated; read-out: Cell-free assay (IC50 in nM). Summed up: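 Activated ERK5 catalytic domain at 4 nM preincubated 30 min at room temperature with compound, then 1 mM ATP and 1 μM biotinylated 4EBP1 (aa 30-52) peptide added for 30 min at 37° C. Phosphorylation detected by TR-FRET; IC50 versus DMSO control, repeats averaged.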

T1 sequence (Q13164 whole entry): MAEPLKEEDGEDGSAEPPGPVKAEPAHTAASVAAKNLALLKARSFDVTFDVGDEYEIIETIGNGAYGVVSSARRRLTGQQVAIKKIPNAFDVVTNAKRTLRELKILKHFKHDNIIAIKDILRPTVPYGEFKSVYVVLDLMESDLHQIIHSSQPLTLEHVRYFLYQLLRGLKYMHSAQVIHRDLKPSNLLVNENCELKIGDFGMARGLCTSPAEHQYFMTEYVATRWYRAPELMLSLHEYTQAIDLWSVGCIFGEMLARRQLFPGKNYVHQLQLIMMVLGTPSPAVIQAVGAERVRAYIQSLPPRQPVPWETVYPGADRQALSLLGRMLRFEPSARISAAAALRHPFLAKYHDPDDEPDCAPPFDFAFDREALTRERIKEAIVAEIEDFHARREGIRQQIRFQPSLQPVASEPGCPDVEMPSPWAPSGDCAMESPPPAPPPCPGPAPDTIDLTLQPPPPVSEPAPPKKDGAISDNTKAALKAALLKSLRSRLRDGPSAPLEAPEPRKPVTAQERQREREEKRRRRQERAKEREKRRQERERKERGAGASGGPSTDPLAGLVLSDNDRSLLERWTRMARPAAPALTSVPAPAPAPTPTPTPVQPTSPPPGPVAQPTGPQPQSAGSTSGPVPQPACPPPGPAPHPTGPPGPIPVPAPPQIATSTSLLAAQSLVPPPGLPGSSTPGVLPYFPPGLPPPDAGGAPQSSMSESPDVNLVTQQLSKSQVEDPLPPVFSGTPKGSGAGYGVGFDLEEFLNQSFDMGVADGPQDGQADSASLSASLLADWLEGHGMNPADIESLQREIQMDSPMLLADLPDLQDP
T2 sequence (Q13164 55-347 limits assumed): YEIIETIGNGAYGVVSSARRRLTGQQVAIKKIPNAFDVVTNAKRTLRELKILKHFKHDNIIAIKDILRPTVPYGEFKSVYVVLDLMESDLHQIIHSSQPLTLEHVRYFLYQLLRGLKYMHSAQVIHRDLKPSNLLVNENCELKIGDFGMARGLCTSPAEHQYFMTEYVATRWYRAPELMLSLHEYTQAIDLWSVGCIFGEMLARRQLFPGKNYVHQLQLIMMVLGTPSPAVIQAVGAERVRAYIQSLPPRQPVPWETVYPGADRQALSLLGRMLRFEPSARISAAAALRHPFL

Turning to `Nc1cc(OC(F)(F)F)ccc1C(=O)N1CCC(n2c(=O)[nH]c3ncc([C@H]4CC[C@H](O)CC4)cc32)CC1` [Example 51, trans-1-[1-[2-amino-4-(trifluoromethoxy)benzoyl]-4-piperidyl]-6-(4-hydroxycyclohexyl)-3H-imidazo[4,5-b]pyridin-2-one], the half-maximal inhibitory concentration (IC50) at ERK5 stood at 205 nM; in test [1] it was 52 nM.

`Nc1cc(OC(F)(F)F)ccc1C(=O)N1CCC(n2c(=O)[nH]c3ncc([C@H]4CC[C@@H](O)CC4)cc32)CC1` [Example 52, cis-1-[1-[2-amino-4-(trifluoromethoxy)benzoyl]-4-piperidyl]-6-(4-hydroxycyclohexyl)-3H-imidazo[4,5-b]pyridin-2-one]: the IC50 turned out to be 244 nM against ERK5 and 97 nM in test [1].

For the compound `Nc1cc(OC(F)(F)F)ccc1C(=O)N1CCC(n2c(=O)[nH]c3ncc(C4CCN(CC(F)(F)F)CC4)cc32)CC1` [Example 53, 1-[1-[2-amino-4-(trifluoromethoxy)benzoyl]-4-piperidyl]-6-[1-(2,2,2-trifluoroethyl)-4-piperidyl]-3H-imidazo[4,5-b]pyridin-2-one], the IC50 came out at 184 nM against ERK5 and 405 nM in test [1].

As for `CN1CCC(c2cnc3[nH]c(=O)n(C4CCN(C(=O)c5ccc(OC(F)(F)F)cc5N)CC4)c3c2)CC1` [Example 54, 1-[1-[2-amino-4-(trifluoromethoxy)benzoyl]-4-piperidyl]-6-(1-methyl-4-piperidyl)-3H-imidazo[4,5-b]pyridin-2-one], the IC50 was found to be 168 nM at ERK5 and 78 nM in test [1].

For the compound `O=C(c1ccc(OC(F)(F)F)cc1)N1CCC(n2c(=O)[nH]c3ncc([C@H]4CC[C@H](O)CC4)cc32)CC1` [Example 57, trans-6-(4-hydroxycyclohexyl)-1-[1-[4-(trifluoromethoxy)benzoyl]-4-piperidyl]-3H-imidazo[4,5-b]pyridine-2-one], the IC50 against ERK5 worked out at 204 nM; in test [1] it was 180 nM.

In the case of `O=C(c1ccc(OC(F)(F)F)cc1)N1CCC(n2c(=O)[nH]c3ncc([C@H]4CC[C@@H](O)CC4)cc32)CC1` [Example 58, cis-6-(4-hydroxycyclohexyl)-1-[1-[4-(trifluoromethoxy)benzoyl]-4-piperidyl]-3H-imidazo[4,5-b]pyridin-2-one], the IC50 on ERK5 came out at 222 nM; in test [1] it was 288 nM.

Consider `CC(C)(C)OC(=O)Nc1cc(OC(F)(F)F)ccc1C(=O)N1CCC(n2c(=O)[nH]c3ncc(Br)cc32)CC1` [Example 59, tert-butyl N-[2-[4-(6-bromo-2-oxo-3H-imidazo[4,5-b]pyridin-1-yl)piperidine-1-carbonyl]-5-(trifluoromethoxy)phenyl]carbamate], for which the results for the IC50 (on ERK5; in test [1]) were 2150 nM and 30000 nM, respectively.

Take `O=C(c1ccc(OC(F)(F)F)cc1)N1CCC(n2c(=O)[nH]c3ncc(Br)cc32)CC1` [Example 60, 6-bromo-1-[1-[4-(trifluoromethoxy)benzoyl]-4-piperidyl]-3H-imidazo[4,5-b]pyridin-2-one]: the IC50 is 641 nM against ERK5 and 1080 nM in test [1].
